From patent US20180064662A1 (THE GENERAL HOSPITAL CORPORATION, priority 2015, published 2018) come the findings set out here.

The structures appear in SMILES notation.

This assay relates to RAW 264.7 (mouse leukemic monocyte-macrophages). Nature of the assay: RAW 264.7 macrophages treated with metformin in vitro (qPCR, Western blot). The format is cell-based. The procedure:
Following treatment, cells were collected for RNA and protein extraction in order to perform subsequent analysis of gene expression of cytokines and polarization markers, and for analysis of signaling and metabolic pathways. […] Cells were collected for protein extraction for analysis of the activation of fibrosis-related pathways. […] The cells were fixed with 4% paraformaldehyde and blocked with 5% normal donkey serum for 1 h. They were incubated with the designated primary antibodies overnight at 4° C. then for 2 h with the appropriate secondary antibodies at RT. PBS was used for all washes and the stained samples were mounted with Prolong Gold with DAPI. Images were acquired using a confocal microscope. The antibodies used and image acquisition settings are described below. Both cell types were grown in Dulbecco's modified Eagle's medium (Sigma, St. Louis, Mo.) supplemented with 5% (v/v) heat inactivated fetal bovine serum (FBS; Sigma), 100 units/ml penicillin and streptomycin. Cells were cultured at 37° C. in a humidified atmosphere including 5% CO2.
Immediately following excision, tumor tissue was snap frozen and stored in liquid nitrogen. Total RNA was extracted and relative gene expression for macrophage M1/M2 markers was determined using a Sybr-green based standard protocol. In addition, total RNA was extracted and relative gene expression was determined using RT2 Profiler PCR Arrays system (Qiagen) on a Stratagene Mx3000P QPCR System using pre-made pathway-focused arrays (“Fibrosis”-Cat. Number: PAMM011Z; “Epithelial to Mesenchymal Transition (EMT)”-Cat. Number: PAMM090Z; “TGF-β signaling targets”-PAMM235Z; “Extracellular Matrix & Adhesion Molecules”-Cat. Number: PAMM013Z; and “Common cytokines ”-Cat. Number: PAMM021Z).
Each tumor sample was homogenized directly in lysis buffer for protein extraction. 20 ug of denatured protein per sample was loaded on 7%, 10% and 12% SDS-polyacrylamide gels. Antibodies used: phospho-p38 MAPKT^180/Y182 and p38; phospho-JNK (SAPK/JNK)^Thr183/Tyr185 and JNK; phospho-AKT^Ser473 and AKT, phospho-ERK(p44/42 MAPK)^T202/Y204 and ERK; phospho-NF-κB^Ser536 and NK-κB; p65^Ser536; phospho-Smad2^Ser465/467 and Smad2; phospho-IGF-I Receptor β^Tyr1135 and IGF; Phospho-IRS-1^Ser612 and IRS; IR; phpspho-stat3^Tyr705 and stat3; Phospho-AMPKα^Thr172 and Ampkα; phospho-Ampkβ^Ser108 and Ampk; phospho-ACC^Ser79 and ACC; Phospho-PDGF Receptor β^Tyr751 and PDGF Receptor β and snail, c-cadherin and vimentin, TGF-β, β-catenin, twist, LC3B. […] Quantification of protein expression relative to total receptor or β-actin was obtained using Image J software.

Turning to `CN(C)C(=N)N=C(N)N` [metformin, 3-(diaminomethylidene)-1,1-dimethylguanidine], the “activation of AMPKα and ACC in macrophages” value (ACC evident only in serum added media) is given as “activation of AMPKα”. Besides, the “activation of STAT3, JNK, AKT and p38 in macrophages” value (concentrations lower than 0.2 mM, Western blot) is “reduced activation”. For the same compound, the “gene expression of M2 markers such as Arg-1 and IL-10” value (metformin 0.05 mM, 48 h) is “reduced M2 markers”. Further, the “gene expression of M1 and M2 markers” value (metformin at doses higher than 0.2 mM) is “reduced both M1 and M2 markers”.
